Legend:
Lck (p56^lck) = molecular target: T1, Lck (p56^lck) (Homo sapiens, UniProt P06239); test: SRC-Inhibitor-Assay (time-resolved fluorescence kinase assay), Lck; assay type: biochemical; settings: ATP 5 μM, peptide 10 μM, enzyme 2.5 U/ml, pH 7.3
T1 construct: purchased UBI, Upstate Biotech, Inc
Source text: (§1) The activity of the compounds according to this invention as inhibitors for the src-family tyrosine kinases was shown by using the following assay.
(§2) ATP, Tween™ 20, 4-(2-hydroxyethyl)-1-piperazineethanesulfonic acid (HEPES) were purchased from Roche Molecular Biochemicals, MgCl2 and MnCl2 were purchased from Merck Eurolab, Tris(2-carboxyethyl)phosphine hydrochloride (TCEP) was purchased from Pierce, 384 Well low volume fluorescence plates was purchased from Falcon.
(§3) At first the enzyme is pre-incubated for 15 min. at 15° C. in aqueous solution with corresponding amounts of inhibitors according to this invention. Then the phosphorylation reaction is started by adding a reaction mixture, containing ATP, Peptide and PT66, and subsequent shaking. The proceeding of this reaction is immediately monitored using time resolved fluorescence spectroscopy in a suitable well plate reader.
(§4) The IC50-values can be obtained from the reaction rates by using a non-linear curve fit (XLfit software (ID Business Solution Ltd., Guilford, Surrey, UK))

Src (p60^c-src) = molecular target: T2, Src (p60^c-src) (Homo sapiens, UniProt P12931); test: SRC-Inhibitor-Assay (time-resolved fluorescence kinase assay), Src; assay type: biochemical; settings: ATP 5 μM, peptide 10 μM, enzyme 2.5 U/ml, pH 7.3
T2 construct: purchased UBI, Upstate Biotech, Inc
T2 sequence (P12931 whole entry): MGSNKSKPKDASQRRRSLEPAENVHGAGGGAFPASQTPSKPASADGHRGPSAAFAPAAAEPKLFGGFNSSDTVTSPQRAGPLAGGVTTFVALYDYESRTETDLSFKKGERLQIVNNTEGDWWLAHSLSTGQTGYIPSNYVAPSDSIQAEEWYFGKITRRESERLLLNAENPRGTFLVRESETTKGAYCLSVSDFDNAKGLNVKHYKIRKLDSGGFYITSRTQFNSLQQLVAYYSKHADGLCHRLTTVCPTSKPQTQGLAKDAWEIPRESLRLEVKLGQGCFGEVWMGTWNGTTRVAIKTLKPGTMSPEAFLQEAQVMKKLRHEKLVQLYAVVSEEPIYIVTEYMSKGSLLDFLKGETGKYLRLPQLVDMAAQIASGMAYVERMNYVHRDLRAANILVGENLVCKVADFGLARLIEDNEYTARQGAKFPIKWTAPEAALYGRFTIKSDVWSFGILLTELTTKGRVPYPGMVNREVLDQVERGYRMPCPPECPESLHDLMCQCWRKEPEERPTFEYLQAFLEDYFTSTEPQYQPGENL
Source text: as §1, §2, §3, §4

T1 sequence (P06239 whole entry): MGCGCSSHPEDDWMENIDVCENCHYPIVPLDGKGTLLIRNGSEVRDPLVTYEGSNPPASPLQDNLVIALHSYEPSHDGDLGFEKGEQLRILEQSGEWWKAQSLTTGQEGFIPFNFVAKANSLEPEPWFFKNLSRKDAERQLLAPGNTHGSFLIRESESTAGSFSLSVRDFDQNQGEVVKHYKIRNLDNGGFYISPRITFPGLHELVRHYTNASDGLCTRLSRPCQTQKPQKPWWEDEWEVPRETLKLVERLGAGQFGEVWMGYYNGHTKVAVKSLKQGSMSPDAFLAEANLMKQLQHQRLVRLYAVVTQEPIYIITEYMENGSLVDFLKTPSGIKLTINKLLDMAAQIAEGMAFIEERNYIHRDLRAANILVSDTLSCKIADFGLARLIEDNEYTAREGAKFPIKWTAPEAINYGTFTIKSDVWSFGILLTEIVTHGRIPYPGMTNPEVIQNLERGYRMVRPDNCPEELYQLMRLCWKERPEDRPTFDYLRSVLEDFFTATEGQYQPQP

| IC50 (Lck (p56^lck)) [µM] | IC50 (Src (p60^c-src)) [µM] | melting point | SMILES |
| --- | --- | --- | --- |
| 0.1 to 9 | 0.01 to 0.5 | – | CC(OC(=O)Nc1cnc2[nH]c(-c3ccccc3)nc2c1)c1ccccc1 (stereo not drawn) [Example 1-13, (2-Phenyl-3H-imidazo[4,5-b]pyridin-6-yl)-carbamic acid 1-phenyl-ethyl ester] |
| 0.1 to 9 | 0.01 to 0.5 | – | CC(C)OC(=O)Nc1cnc2[nH]c(-c3ccc(N4CCOCC4)cc3)nc2c1 [Example 2-5, [2-(4-Morpholin-4-yl-phenyl)-3H-imidazo[4,5-b]pyridin-6-yl]-carbamic acid isopropyl ester] |
| 0.1 to 9 | 0.01 to 0.5 | – | CC(C)OC(=O)Nc1cnc2[nH]c(-c3cccc([S+](C)[O-])c3)nc2c1 (stereo not drawn) [Example 8-1, [2-(3-Methylsulfinyl-phenyl)-3H-imidazo[4,5-b]pyridin-6-yl]-carbamic acid isopropyl ester] |
| 0.1 to 9 | 0.01 to 0.5 | – | CC(=O)Nc1ccc(-c2cc3cc(NC(=O)OCC(C)(C)C)cnc3[nH]2)cc1 [Example 9-25, [2-(4-Acetylamino-phenyl)-1H-pyrrolo[2,3-b]pyridin-5-yl]-carbamic acid 2,2-dimethyl-propyl ester] |
| 0.1 to 9 | 0.01 to 0.5 | – | CC(=O)Nc1cccc(-c2cc3cc(NC(=O)OCC(C)C)cnc3[nH]2)c1 [Example 9-28, [2-(3-Acetylamino-phenyl)-1H-pyrrolo[2,3-b]pyridin-5-yl]-carbamic acid isobutyl ester] |
| 2 to 9 | 0.5 to 1.5 | – | CC(C)OC(=O)Nc1cnc2[nH]c(-c3cccc(C(=O)O)c3)nc2c1 [Example 11-1, 3-(6-Isopropoxycarbonylamino-3H-imidazo[4,5-b]pyridin-2-yl)-benzoic acid] |
| 0.1 to 9 | 0.01 to 0.5 | – | O=C(Nc1cnc2[nH]c(-c3ccccc3)cc2c1)OCc1ccccc1 [Example 9-8, (2-Phenyl-1H-pyrrolo[2,3-b]pyridin-5-yl)-carbamic acid benzyl ester] |
| – | – | 342 °C (dec.) | CC(C)OC(=O)Nc1cnc2[nH]c(-c3ccsc3)nc2c1 [Example 2-7, (2-Thiophen-3-yl-3H-imidazo[4,5-b]pyridin-6-yl)-carbamic acid isopropyl ester] |
| 0.1 to 9 | 0.01 to 0.5 | – | CC(C)OC(=O)Nc1cnc2[nH]c(-c3cccc(CCO)c3)nc2c1 [Example 2-9, {2-[3-(2-Hydroxy-ethyl)-phenyl]-3H-imidazo[4,5-b]pyridin-6-yl}-carbamic acid isopropyl ester] |
| 0.1 to 9 | 0.01 to 0.5 | – | CC(C)OC(=O)Nc1cnc2[nH]c(-c3ccnc(Cl)c3)nc2c1 [Example 12-1, [2-(2-Chloro-pyridin-4-yl)-3H-imidazo[4,5-b]pyridin-6-yl]-carbamic acid isopropyl ester] |
| 2 to 9 | 0.5 to 1.5 | – | CC(C)(C)COC(=O)Nc1cnc2[nH]c(-c3ccccc3)nc2c1 [Example 1-12, (2-Phenyl-3H-imidazo[4,5-b]pyridin-6-yl)-carbamic acid 2,2-dimethyl-propyl ester] |
